Values belong to the molecule of their own block, whether it stands above or below them.
What was measured:
MCF-7 cells [1] = experiment: Cell cycle analysis (PI flow cytometry); type: cell-based, human; conditions: 10 μM, 24 h
Method: Apoptosis is the primary mechanism by which potent chemotherapeutic agents destroy cancer cells. […] Flow cytometry measured cell growth in the G0-G1, S, and G2/M cell cycle phases.
Using the MCF-7 cell line, the cell cycle analysis was carried out like our previous investigation. A FACSCalibur flow cytometer was used to analyze the cells after they had been stained with DNA fluorochrome PI (Supplementary Materials). […]
photomultiplier voltage and for compensation setting adjustment to eliminate spectral overlap between the FL1 and the FL2 signals.
6. Cell cycle analysis
Breast carcinoma (MCF-7) cell was seeded at 2 × 10^5 cells/well density and incubated for 24 h in six-well plates. Foetal bovine serum (10%) was added, and the cells were incubated at 37 °C in an atmosphere of 5% CO2. The medium was replaced with 1% (v/v) DMSO containing 10.0 μM of […]
with 70% ethanol, rinsed with phosphate-buffered saline, and then stained with the DNA fluorochrome propidium iodide (PI) for 15 min at 37 °C. Then, samples were analyzed by flow cytometry using a FACSCalibur (Becton Dickinson). The cell cycle distributions were calculated using CellQuest software (Becton Dickinson). […]

MCF-7 cells [2] = experiment: Annexin V-FITC/PI apoptosis assay; type: cell-based, human; conditions: 24 h
UO-31 = experiment: NCI anticancer screening (SRB), Renal Cancer subpanel; type: cell-based, human; conditions: 10.0 µM in one dose
[3] = test system: 59 human cancer cell lines; experiment: NCI anticancer screening, full panel summary; conditions: 10 µM single dose; for PCE (positive cytotoxic effect): ratio of cell lines with growth inhibition > 10% to total cell lines; for MG% (mean growth percent): mean over 59 cell lines
MALME-3M = experiment: NCI anticancer screening (SRB), Melanoma subpanel; type: cell-based, human; conditions: 10.0 µM in one dose
[4] = test system: NSC Lung Cancer subpanel tumor cell lines; experiment: NCI anticancer screening, subpanel summary; type: cell-based; conditions: non-small cell lung; 10 µM, joint for compounds named together
[5] = test system: Breast Cancer subpanel tumor cell lines; experiment: NCI anticancer screening, subpanel summary; type: cell-based; conditions: breast; 10 µM, joint for compounds named together
HOP-92 = experiment: NCI anticancer screening (SRB), Non-Small Cell Lung Cancer subpanel; type: cell-based, human; conditions: 10.0 µM in one dose
[6] = test system: Leukemia subpanel tumor cell lines; experiment: NCI anticancer screening, subpanel summary; type: cell-based; conditions: leukemia; 10 µM, joint for compounds named together
in vitro = conditions: human
Method: the measured protein at the end of the drug treatment as compared to that at the beginning) indicating a net loss of cells following treatment was calculated from [(Ti − Tz)/Tz] […] = − 50.
Values were calculated for each of these three parameters if the activity level was reached; however, if the effect was not reached or exceeded, that parameter's value was expressed as more or less than the maximum or minimum concentration tested. The log GI50, log TGI, and log LC50 were then determined and defined as the mean of the logs of the individual GI50, TGI, and LC50 values. The lowest values are obtained with the most sensitive cell lines. The compound with log GI50 values −4 and <−4 was declared active.
2. In vitro cytotoxic activity towards normal fibroblast (WI-38) cells Cell Lines were obtained from the American Type Culture Collection; cells were cultured using DMEM (Invitrogen/Life Technologies) supplemented with 10% FBS (Hyclone), ten ug/ml of insulin (Sigma), and 1% penicillin–streptomycin. Cultures were removed from the incubator into a laminar flow hood, reconstituted with 3 mL of balanced salt solution without phenol red and serum, and then added to an amount equal to 10% of the culture medium volume. Cultures returned to the incubator for 2–4 h. After the incubation period, the resulting formazan crystals dissolved […]
medium volume. The absorbance was measured Spectrophotometrically at a wavelength of 570 […]
3. In vitro cyclooxygenase (COX-2) inhibition assay
The ability of the test compounds to inhibit COX-2 was determined using an enzyme immunoassay […]
manufacturer’s instructions.

UACC-257 = experiment: NCI anticancer screening (SRB), Melanoma subpanel; type: cell-based, human; conditions: 10.0 µM in one dose
A498 = experiment: NCI anticancer screening (SRB), Renal Cancer subpanel; type: cell-based, human; conditions: 10.0 µM in one dose
CAKI-1 = experiment: as above; type: cell-based, human; conditions: 10.0 µM in one dose
MCF-7 = experiment: NCI anticancer screening (SRB), Breast Cancer subpanel; type: cell-based, human; conditions: 10.0 µM in one dose
SR = experiment: NCI anticancer screening (SRB), Leukemia subpanel; type: cell-based, human; conditions: 10.0 µM in one dose
MDA-MB-468 = experiment: NCI anticancer screening (SRB), Breast Cancer subpanel; type: cell-based, human; conditions: 10.0 µM in one dose
PC-3 = experiment: NCI anticancer screening (SRB), Prostate Cancer subpanel; type: cell-based, human; conditions: 10.0 µM in one dose
DU-145 = experiment: as above; type: cell-based, human; conditions: 10.0 µM in one dose
LOX IMVI = experiment: NCI anticancer screening (SRB), Melanoma subpanel; type: cell-based, human; conditions: 10.0 µM in one dose
SF-295 = experiment: NCI anticancer screening (SRB), CNS Cancer subpanel; type: cell-based, human; conditions: 10.0 µM in one dose
MOLT-4 = experiment: NCI anticancer screening (SRB), Leukemia subpanel; type: cell-based, human; conditions: 10.0 µM in one dose
EKVX = experiment: NCI anticancer screening (SRB), Non-Small Cell Lung Cancer subpanel; type: cell-based, human; conditions: 10.0 µM in one dose
T-47D = experiment: NCI anticancer screening (SRB), Breast Cancer subpanel; type: cell-based, human; conditions: 10.0 µM in one dose
NCI-H23 = experiment: NCI anticancer screening (SRB), Non-Small Cell Lung Cancer subpanel; type: cell-based, human; conditions: 10.0 µM in one dose
NCI-H226 = experiment: as above; type: cell-based, human; conditions: 10.0 µM in one dose
HCT-15 = experiment: NCI anticancer screening (SRB), Colon Cancer subpanel; type: cell-based, human; conditions: 10.0 µM in one dose
MDA-MB-231/ATCC = experiment: NCI anticancer screening (SRB), Breast Cancer subpanel; type: cell-based, human; conditions: 10.0 µM in one dose
U251 = experiment: NCI anticancer screening (SRB), CNS Cancer subpanel; type: cell-based, human; conditions: 10.0 µM in one dose
SF-539 = experiment: as above; type: cell-based, human; conditions: 10.0 µM in one dose
[7] = test system: Ovarian Cancer subpanel tumor cell lines; experiment: NCI anticancer screening, subpanel summary; type: cell-based; conditions: ovarian; 10 µM, joint for compounds named together
HCT-116 = experiment: NCI anticancer screening (SRB), Colon Cancer subpanel; type: cell-based, human; conditions: 10.0 µM in one dose
SK-MEL-5 = experiment: NCI anticancer screening (SRB), Melanoma subpanel; type: cell-based, human; conditions: 10.0 µM in one dose
HT29 = experiment: NCI anticancer screening (SRB), Colon Cancer subpanel; type: cell-based, human; conditions: 10.0 µM in one dose
RPMI-8226 = experiment: NCI anticancer screening (SRB), Leukemia subpanel; type: cell-based, human; conditions: 10.0 µM in one dose

SMILES: CN[C@@H]1C[C@H]2O[C@@](C)([C@@H]1OC)n1c3ccccc3c3c4c(c5c6ccccc6n2c5c31)C(=O)NC4 [Staurosporine, staurosporine]
%G0–G1 (MCF-7 cells [1]): 65.74%
%G2-M (MCF-7 cells [1]): 3.07%
%S (MCF-7 cells [1]): 31.19%
Comment (cell cycle arrest phase) (MCF-7 cells [1]): Growth arrest@G1/S
Necrosis (MCF-7 cells [2]): 4.04%
Total Apoptosis (MCF-7 cells [2]; annexin V-FITC/PI): 34.39%
Early Apoptosis (MCF-7 cells [2]; lower-right quadrant): 8.36%
Late Apoptosis (MCF-7 cells [2]; upper-right quadrant): 21.99%

SMILES: CS(=O)(=O)Nc1ccc(C(=O)N/N=C/c2cccc(O)c2)cc1 [Compound 9]
GI% (UO-31): 17%
PCE (positive cytotoxic effect) [3]: 3/59
GI% (MALME-3M): 12%
GI range in subpanel [4]: 23.0%
GI range in subpanel [5]: 11.0%
GI% (HOP-92): 23%
GI range in subpanel [6]: 10.0%

IC50 (in vitro): 32 µM
SMILES: CS(=O)(=O)CCNCc1ccc(-c2ccc3ncnc(Nc4ccc(OCc5cccc(F)c5)c(Cl)c4)c3c2)o1 [Lapatinib, lapatinib]

SMILES: CS(=O)(=O)Nc1ccc(C(=O)N/N=C/c2ccc(O)cc2)cc1 [Compound 10]
GI% (UO-31): 14%
PCE (positive cytotoxic effect) [3]: 4/59
GI% (UACC-257): 10%
GI% (A498): 15%
GI range in subpanel [4]: 23.0%
GI% (CAKI-1): 10%
GI range in subpanel [5]: 11.0%
GI range in subpanel [6]: 10.0%

SMILES: COc1cc(/C=N/NC(=O)c2ccc(NS(C)(=O)=O)cc2)ccc1O [Compound 11]
GI% (UO-31): 10%
PCE (positive cytotoxic effect) [3]: 4/59
GI% (MCF-7): 11%
GI range in subpanel [4]: 23.0%
GI% (CAKI-1): 16%
GI range in subpanel [5]: 11.0%
GI% (SR): 10%
GI range in subpanel [6]: 10.0%

SMILES: Cc1ccc(NC(=O)c2ccc(CN3CCN(C)CC3)cc2)cc1Nc1nccc(-c2cccnc2)n1 [Imatinib, imatinib]
GI% (MDA-MB-468): 29%
MG% (mean growth percent) [3]: 92.62%
MG% (mean growth percent) ([3]; listed as imatinib): 92.6%
GI% (PC-3): 11%
GI% (DU-145): 14%
GI% (LOX IMVI): 12%
GI% (SF-295): 15%
GI% (MOLT-4): 18%
GI% (EKVX): 16%
GI% (T-47D): 19%
GI% (NCI-H23): 17%
GI% (NCI-H226): 11%
GI% (HCT-15): 12%
GI% (MDA-MB-231/ATCC): 11%
GI% (A498): 14%
GI% (U251): 11%
GI% (SF-539): 25%
GI range in subpanel [7]: ≥ 10.0%
GI% (HCT-116): 19%
GI% (SK-MEL-5): 22%
GI% (HT29): 47%
GI% (SR): 15%
GI% (RPMI-8226): 13%

Reference: publication PMC11728000, “Antitumor Activity and Multi-Target Mechanism of Phenolic Schiff Bases Bearing Methanesulfonamide Fragments: Cell Cycle Analysis and a Molecular Modeling Study” (International Journal of Molecular Sciences, 2024)
